From patent publication US9067932B2, “Pyrazolopyridine kinase inhibitors” (Vertex Pharmaceuticals Incorporated, priority 2010, dated 2015)
Where two headings read alike, the source gives them in different places.

Columns and labels:
Format in all cases: biochemical
PKC alpha kinase = PKC alpha kinase (Homo sapiens, UniProt P17252); experiment: PKC alpha coupled-enzyme (NADH consumption) kinase assay; details: 4.5 nM PKC alpha, 130 μM ATP, 100 μM CaCl2, 30° C.
Experimental: An assay buffer solution was prepared which consisted of 100 mM HEPES (pH 7.5), 10 mM MgCl2, 25 mM NaCl, 0.1 mM EDTA, 100 μM CaCl2 and 0.01% Brij. An enzyme buffer containing reagents to final assay concentrations of 0.002% Triton X-100, 100 μg/mL Phosphatidylserine, 20 μg/mL Diacylglycerol, 360 μM NADH, 3 mM phosphoenolpyruvate, 70 μg/mL pyruvate kinase, 24 μg/mL lactate dehydrogenase, 2 mM DTT, 150 μM substrate peptide ([…] SEQ ID NO. 1) and 4.5 nM PKC alpha kinase was prepared in assay buffer. To 16 μL of this enzyme buffer, in a 384 well plate, was added 1 μL of VRT stock solution in DMSO. The mixture was allowed to equilibrate for 10 mins at 30° C. The enzyme reaction was initiated by the addition of 16 μL stock ATP solution prepared in assay buffer to a final assay concentration of 130 μM. Initial rate data was determined from the rate of change of absorbance at 340 nm (corresponding to stoichiometric consumption of NADH) using a Molecular Devices Spectramax plate reader (Sunnyvale, Calif.) over 15 mins at 30° C. For each Ki determination 12 data points covering the VRT concentration range of 0-20 μM were obtained in duplicate (DMSO stocks were prepared from an initial 10 mM VRT stock with subsequent 1:2 serial dilutions). Ki values were calculated from initial rate data by non-linear regression using the Prism software package (Prism 4.0a, Graphpad Software, San Diego, Calif.).

PKC delta kinase = PKC delta kinase (Homo sapiens, UniProt Q05655); experiment: PKC delta coupled-enzyme (NADH consumption) kinase assay; details: 46 nM PKC delta, 150 μM ATP, 30° C., initial rate at 340 nm
Chain of PKC delta kinase (Q05655 whole entry): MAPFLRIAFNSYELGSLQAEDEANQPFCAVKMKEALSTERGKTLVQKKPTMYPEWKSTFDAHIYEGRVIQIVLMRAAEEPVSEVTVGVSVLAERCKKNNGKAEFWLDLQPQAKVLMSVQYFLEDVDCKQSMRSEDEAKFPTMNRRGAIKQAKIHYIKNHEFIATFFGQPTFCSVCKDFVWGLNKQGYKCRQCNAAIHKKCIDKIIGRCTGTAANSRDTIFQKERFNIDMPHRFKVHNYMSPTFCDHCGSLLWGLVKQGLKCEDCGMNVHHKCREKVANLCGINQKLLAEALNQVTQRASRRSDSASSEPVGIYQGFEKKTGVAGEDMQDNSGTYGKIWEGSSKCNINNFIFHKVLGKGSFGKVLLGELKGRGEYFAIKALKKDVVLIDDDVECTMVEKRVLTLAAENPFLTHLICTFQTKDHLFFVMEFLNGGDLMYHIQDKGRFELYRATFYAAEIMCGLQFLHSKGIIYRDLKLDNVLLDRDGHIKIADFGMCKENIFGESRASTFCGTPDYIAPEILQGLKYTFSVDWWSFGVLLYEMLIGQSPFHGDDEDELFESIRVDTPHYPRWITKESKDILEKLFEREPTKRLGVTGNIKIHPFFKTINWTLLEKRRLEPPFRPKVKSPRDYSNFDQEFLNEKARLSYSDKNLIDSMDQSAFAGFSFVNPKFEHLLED
Experimental: (§1) An assay buffer solution was prepared which consisted of 100 mM HEPES (pH 7.5), 10 mM MgCl2, 25 mM NaCl, 0.1 mM EDTA and 0.01% Brij. […] To 16 μL of this enzyme buffer, in a 384 well plate, was added 1 μL of VRT stock solution in DMSO. […] The enzyme reaction was initiated by the addition of 16 μL stock ATP solution prepared in assay buffer to a final assay concentration of 150 μM. Initial rate data was determined from the rate of change of absorbance at 340 nm (corresponding to stoichiometric consumption of NADH) using a Molecular Devices Spectramax plate reader (Sunnyvale, Calif.) over 15 mins at 30° C. For each Ki determination 12 data points covering the VRT concentration range of 0-20 μM were obtained in duplicate (DMSO stocks were prepared from an initial 10 mM VRT stock with subsequent 1:2 serial dilutions). Ki values were calculated from initial rate data by non-linear regression using the Prism software package (Prism 4.0a, Graphpad Software, San Diego, Calif.).

PKC theta kinase = PKC theta kinase (Homo sapiens, UniProt Q04759); experiment: PKC theta coupled-enzyme (NADH consumption) kinase assay; details: 18 nM PKC theta, 240 μM ATP, 30° C., initial rate at 340 nm
Chain of PKC theta kinase (Q04759 whole entry): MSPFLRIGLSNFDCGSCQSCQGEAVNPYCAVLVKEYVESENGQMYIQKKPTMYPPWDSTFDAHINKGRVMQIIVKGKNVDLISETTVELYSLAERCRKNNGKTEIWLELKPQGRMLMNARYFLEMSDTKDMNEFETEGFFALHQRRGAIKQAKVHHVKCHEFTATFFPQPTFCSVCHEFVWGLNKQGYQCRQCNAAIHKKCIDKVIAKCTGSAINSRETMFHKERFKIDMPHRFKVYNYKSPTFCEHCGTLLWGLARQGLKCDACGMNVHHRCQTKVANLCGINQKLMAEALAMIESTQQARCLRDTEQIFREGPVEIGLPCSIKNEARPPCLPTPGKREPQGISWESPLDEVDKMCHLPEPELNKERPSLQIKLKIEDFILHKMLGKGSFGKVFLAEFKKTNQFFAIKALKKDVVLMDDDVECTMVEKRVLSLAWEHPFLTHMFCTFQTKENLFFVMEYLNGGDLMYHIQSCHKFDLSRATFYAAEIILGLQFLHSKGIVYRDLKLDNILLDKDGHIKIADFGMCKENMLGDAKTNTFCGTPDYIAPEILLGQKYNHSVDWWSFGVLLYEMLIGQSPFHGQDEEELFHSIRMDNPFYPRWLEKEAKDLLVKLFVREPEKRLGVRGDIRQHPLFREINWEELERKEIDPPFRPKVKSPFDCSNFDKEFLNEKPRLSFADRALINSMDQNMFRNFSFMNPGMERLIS
Experimental: as §1, with “To 60” for “To 16”, “added 2” for “added 1”, “of 5” for “of 16”, “of 240” for “of 150”

SMILES	Ki (PKC alpha kinase; read-out: Ki PKC alpha) [nM]	Ki (PKC delta kinase) [nM]	Ki (PKC theta kinase; read-out: Ki PKC theta) [nM]	Ki (PKC alpha kinase; Ki PKC alpha) [nM]	Ki (PKC theta kinase; Ki PKC theta) [nM]
CC(C)[C@@](C)(O)[C@@H]1CN(c2nc(-c3n[nH]c4ncccc34)c(F)cc2CO)CCN1 [Compound 44]	< 500	< 10	< 1		
CCC(O)C1CN(c2nc(-c3n[nH]c4ncccc34)c(F)cc2Cl)CCN1 (stereo not drawn) [Compound 19]	< 2800	< 50	< 1		
CC(C)C(C)(O)C1CN(c2nc(C3N=Nc4ncccc43)c(F)cc2F)CCN1 (stereo not drawn) [Compound 3]		< 500		< 2800	< 1

Further lines, with some results ahead:

Ki (PKC alpha kinase; read-out: Ki PKC alpha) [nM]	Ki (PKC delta kinase) [nM]	Ki (PKC theta kinase; read-out: Ki PKC theta) [nM]	SMILES	Ki (PKC alpha kinase; Ki PKC alpha) [nM]	Ki (PKC theta kinase; Ki PKC theta) [nM]
< 500	< 500	< 1	CC(C)(O)[C@@](C)(O)[C@@H]1CN(c2nc(-c3n[nH]c4ncccc34)c(F)cc2F)CCN1 [Compound 41]		
< 2800	< 500	< 50	CC(C)[C@](C)(O)[C@@H]1CN(c2nc(-c3n[nH]c4ncccc34)c(F)cc2Cl)CCN1 [Compound 38]		
